Structures are written as SMILES. Activity calls are given as the source filed them. How the calls were made is not given here.

In this data set the test system is CCRIS mutagenicity, Ames/micronucleus/aberration tests. In words: CCRIS mutagenicity studies. Particulars: Test System: AMES SALMONELLA TYPHIMURIUM
The mark [1] stands for this setting: Strain/Indicator: TA98, Metabolic Activation: NONE, Method: PREINCUBATION
The mark [2] stands for this setting: Strain/Indicator: TA100, Metabolic Activation: NONE, Method: PREINCUBATION
The mark [3] stands for this setting: Strain/Indicator: TA1535, Metabolic Activation: NONE, Method: PREINCUBATION
Where [4] appears, read: Strain/Indicator: TA1537, Metabolic Activation: NONE, Method: PREINCUBATION
Where [5] appears, read: Strain/Indicator: TA100, Metabolic Activation: NONE, Method: STANDARD PLATE.
[6] abbreviates: Strain/Indicator: TA102, Metabolic Activation: NONE, Method: STANDARD PLATE.

In the case of `CC(=O)N(C)c1ccc(N=Nc2ccc(N(C)C(C)=O)cc2)cc1`, the mutagenic call was “inactive; negative” (Strain/Indicator: TA98, Metabolic Activation: RAT, LIVER, S-9, POLYCHLORINATED BIPHENYLS, Method: PREINCUBATION) and “inactive; negative” (Strain/Indicator: TA100, Metabolic Activation: RAT, LIVER, S-9, POLYCHLORINATED BIPHENYLS, Method: PREINCUBATION).

In the case of `CCCCCCCCC1OC1CCCCCCCC(=O)OCC(CC)CCCC` (stereo not drawn), the mutagenic call (Strain/Indicator: TA97, Metabolic Activation: HAMSTER, LIVER, S-9, AROCLOR 1254 (10% & 30%), Method: PREINCUBATION) is “inactive; negative”; the mutagenic call (Strain/Indicator: TA97, Metabolic Activation: NONE, Method: PREINCUBATION) is “inactive; negative”; the mutagenic call (Strain/Indicator: TA97, Metabolic Activation: RAT, LIVER, S-9, AROCLOR 1254 (10% & 30%), Method: PREINCUBATION) was “inactive; negative”; the mutagenic call (Strain/Indicator: TA98, Metabolic Activation: HAMSTER, LIVER, S-9, AROCLOR 1254 (10% & 30%), Method: PREINCUBATION) was “inactive; negative”; the mutagenic call under setting [1] is “inactive; negative”; the mutagenic call (Strain/Indicator: TA98, Metabolic Activation: RAT, LIVER, S-9, AROCLOR 1254 (10% & 30%), Method: PREINCUBATION) is “inactive; negative”. For the same molecule, the mutagenic call is “inactive; negative” (Strain/Indicator: TA100, Metabolic Activation: HAMSTER, LIVER, S-9, AROCLOR 1254 (10% & 30%), Method: PREINCUBATION); “inactive; negative” under setting [2]; “inactive; negative” (Strain/Indicator: TA100, Metabolic Activation: RAT, LIVER, S-9, AROCLOR 1254 (10% & 30%), Method: PREINCUBATION); “inactive; negative” (Strain/Indicator: TA1535, Metabolic Activation: HAMSTER, LIVER, S-9, AROCLOR 1254 (10% & 30%), Method: PREINCUBATION); “inactive; negative” under setting [3]; “inactive; negative” (Strain/Indicator: TA1535, Metabolic Activation: RAT, LIVER, S-9, AROCLOR 1254 (10% & 30%), Method: PREINCUBATION).

As for `CCCCNCC`, the mutagenic call is “inactive; negative” (Strain/Indicator: TA98, Metabolic Activation: HAMSTER, LIVER, S-9, AROCLOR 1254 (10%), Method: PREINCUBATION); “inactive; negative” under setting [1]; “inactive; negative” (Strain/Indicator: TA98, Metabolic Activation: RAT, LIVER, S-9, AROCLOR 1254 (10%), Method: PREINCUBATION); “inactive; negative” (Strain/Indicator: TA100, Metabolic Activation: HAMSTER, LIVER, S-9, AROCLOR 1254 (10%), Method: PREINCUBATION); “inactive; negative” under setting [2]; “inactive; negative” (Strain/Indicator: TA100, Metabolic Activation: RAT, LIVER, S-9, AROCLOR 1254 (10%), Method: PREINCUBATION). For the same molecule, the mutagenic call (Strain/Indicator: TA1535, Metabolic Activation: HAMSTER, LIVER, S-9, AROCLOR 1254 (10%), Method: PREINCUBATION) was “inactive; negative”; the mutagenic call under setting [3] is “inactive; negative”; the mutagenic call (Strain/Indicator: TA1535, Metabolic Activation: RAT, LIVER, S-9, AROCLOR 1254 (10%), Method: PREINCUBATION) is “inactive; negative”; the mutagenic call (Strain/Indicator: TA1537, Metabolic Activation: HAMSTER, LIVER, S-9, AROCLOR 1254 (10%), Method: PREINCUBATION) was “inactive; negative”; the mutagenic call under setting [4] is “inactive; negative”; the mutagenic call (Strain/Indicator: TA1537, Metabolic Activation: RAT, LIVER, S-9, AROCLOR 1254 (10%), Method: PREINCUBATION) was “inactive; negative”.

As to `CNC(=O)Oc1cc2ccccc2c2ccccc12`, the mutagenic call was “inactive; negative” (Strain/Indicator: TA98, Metabolic Activation: RAT, LIVER, S-9, AROCLOR 1254, Method: STANDARD PLATE) and “active; positive” (Strain/Indicator: TA1535, Metabolic Activation: RAT, LIVER, S-9, AROCLOR 1254, Method: STANDARD PLATE).

With `BrCc1c2ccccc2cc2ccccc12`, the mutagenic call is “active; positive” (Strain/Indicator: TA98, Metabolic Activation: NONE, Method: STANDARD PLATE) and “active; positive” under setting [5].

`C1=C\CC/C=C\CC/1.Nc1ccccc1.[Cl-].[Rh]`: the mutagenic call (Strain/Indicator: TA2410, Metabolic Activation: NONE, Method: STANDARD PLATE) is “inactive; negative”.

`Oc1cc(O)c2ccccc2c1`: the mutagenic call was “active; positive” under setting [1]; “active; positive” under setting [2]; “active; positive” (Strain/Indicator: TA104, Metabolic Activation: NONE, Method: PREINCUBATION); “inactive; negative” under setting [3]; “inactive; negative” under setting [4]; “inactive; negative” (Strain/Indicator: TA1538, Metabolic Activation: NONE, Method: PREINCUBATION). In addition, the mutagenic call is, setting by setting: (Strain/Indicator: TA2637, Metabolic Activation: NONE, Method: PREINCUBATION) “active; positive”; (Strain/Indicator: TA2659, Metabolic Activation: NONE, Method: PREINCUBATION) “inactive; negative”.

On to `NN1C(=O)c2ccccc2C1=O`, for which the mutagenic call was “inactive; negative” (Strain/Indicator: TA97A, Metabolic Activation: NONE, Method: STANDARD PLATE); “inactive; negative” (Strain/Indicator: TA97A, Metabolic Activation: RAT, LIVER, S-9, AROCLOR 1254, Method: STANDARD PLATE); “inactive; negative” under setting [5]; “inactive; negative” (Strain/Indicator: TA100, Metabolic Activation: RAT, LIVER, S-9, AROCLOR 1254, Method: STANDARD PLATE); “inactive; negative” under setting [6]; “inactive; negative” (Strain/Indicator: TA102, Metabolic Activation: RAT, LIVER, S-9, AROCLOR 1254, Method: STANDARD PLATE). Besides, the mutagenic call (Strain/Indicator: TA104, Metabolic Activation: NONE, Method: STANDARD PLATE) is “inactive; negative” and the mutagenic call (Strain/Indicator: TA104, Metabolic Activation: RAT, LIVER, S-9, AROCLOR 1254, Method: STANDARD PLATE) was “inactive; negative”.

Consider `CCn1nc(C(=O)O)c(=O)c2cc3c(cc21)OCO3`, for which the mutagenic call under setting [6] is “active; positive”.

The values above are taken from PubChem BioAssay AID1259407 (Chemical Carcinogenesis Research Information System (CCRIS), 2018).
